# Experimental data published in PubChem BioAssay (NCI).
#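 48-hour exposure; five concentrations; linearly interpolated endpoints. GI50: concentration for 50% inhibition of growth. TGI denotes the concentration required for complete inhibition of growth.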
# Tests used:
# Assay in all cases: growth of human tumour cells (NCI), 48 h
# [1] = system: KM12 colon
# [2] = system: A498 renal
# [3] = system: SF-268 CNS
# [4] = system: SNB-19 CNS
# [5] = system: RPMI-8226 leukemia
# [6] = system: MDA-MB-231 breast
# [7] = system: HCT-116 colon
# [8] = system: NCI-H460 lung
# [9] = system: K-562 leukemia
# [10] = system: HS 578T breast
# [11] = system: COLO 205 colon
# [12] = system: HT29 colon
# [13] = system: SNB-75 CNS
# [14] = system: HL-60(TB) leukemia
# [15] = system: A549 NSCLC
# [16] = system: SK-MEL-2 melanoma
# [17] = system: OVCAR-5 ovarian
# [18] = system: MALME-3M melanoma
# [19] = system: HCT-15 colon
# [20] = system: CCRF-CEM leukemia
# [21] = system: SF-295 CNS
# [22] = system: HOP-92 NSCLC
# [23] = system: MOLT-4 leukemia
# [24] = system: MCF7 breast
# [25] = system: PC-3 prostate
# [26] = system: SK-MEL-5 melanoma
# [27] = system: NCI-H226 lung
# [28] = system: IGROV1 ovarian
# [29] = system: NCI-H23 lung
structure (smiles),measurement,setting,value
C/C(=N\Nc1cccc(Cl)n1)c1ccccn1,GI50,[1],548 nM
same,TGI,[1],> 100 µM
same,GI50,[2],1410 nM
same,TGI,[2],4.87 µM
same,GI50,[3],673 nM
same,TGI,[3],15.2 µM
same,GI50,[4],1230 nM
same,TGI,[4],> 100 µM
same,GI50,[5],615 nM
same,TGI,[5],8.28 µM
same,GI50,[6],584 nM
same,TGI,[6],> 100 µM
same,GI50,[7],401 nM
same,TGI,[7],> 100 µM
same,GI50,[8],482 nM
same,TGI,[8],8.33 µM
same,GI50,[9],574 nM
same,TGI,[9],> 100 µM
same,GI50,[10],5.08 µM
same,TGI,[10],> 100 µM
same,GI50,[11],380 nM
same,TGI,[11],> 21.5 µM
same,GI50,[12],909 nM
same,TGI,[12],> 100 µM
same,GI50,[13],2280 nM
same,TGI,[13],> 56.9 µM
same,GI50,[14],446 nM
same,TGI,[14],3.94 µM
same,GI50,[15],932 nM
same,TGI,[15],> 100 µM
same,GI50,[16],2720 nM
same,TGI,[16],> 100 µM
same,GI50,[17],819 nM
same,TGI,[17],> 100 µM
same,GI50,[18],1780 nM
same,TGI,[18],8.71 µM
same,GI50,[19],363 nM
same,TGI,[19],> 100 µM
same,GI50,[20],365 nM
same,TGI,[20],> 25.2 µM
same,GI50,[21],827 nM
same,TGI,[21],> 32.3 µM
same,GI50,[22],1320 nM
same,TGI,[22],21.1 µM
same,GI50,[23],407 nM
same,TGI,[23],> 100 µM
same,GI50,[24],2000 nM
same,TGI,[24],> 100 µM
same,GI50,[25],890 nM
same,TGI,[25],> 100 µM
same,GI50,[26],1620 nM
same,TGI,[26],4.62 µM
same,GI50,[27],978 nM
same,TGI,[27],6.57 µM
same,GI50,[28],533 nM
same,TGI,[28],> 59.1 µM
same,GI50,[29],1280 nM
same,TGI,[29],> 37.6 µM
